US8536140B2, “Methods for treating inflammatory bowel disease” (MTI Meta Tech Inc., priority 2004, dated 2013)

Tests used:
rat intestine = settings: dietary, rat intestine in vivo; cited from earlier work
CaCo-2 cells [1] = assay: Apical and basolateral GD3 uptake, retention, transfer and metabolism in CaCo-2 cell monolayers on trans-well plates; type: in vitro ADME, human
Procedure: Polarized, differentiated monolayers of CaCo-2 cells grown on trans-well plates were used as a model to study apical and basolateral GD3 uptake. CaCo-2 cells were seeded at a density of 2.5×10^7 cells/ml on 0.4 μm pore inserts in 24 well trans-well plates (Corning Inc., Acton, Mass.). The apical (upper) and basolateral (lower) compartments contained 100 μl and 600 μl of EMEM-10, respectively. CaCo-2 cells were grown to confluence and were differentiated twenty days prior to delivering gangliosides. After 20 days, CaCo-2 cells were differentiated and polarized with intact tight junctions, as confirmed by alkaline phosphatase activity and trans-epithelial resistance measurements (data not shown). On day 21, CaCo-2 cells were transferred into Hank's MEM-4, a low serum, low calcium medium containing no antibiotics to limit serum and calcium interference with ganglioside uptake and antibiotic effects on tight junction permeability. Serum present in the media aided in GD3 solubilization and micelle formation during sonication. CaCo-2 cells were incubated under standard conditions in the absence (control, MEM-4 alone) or presence of purified ganglioside GD3 in MEM-4 for 6, 24 and 48 h at a concentration of 5 or 10 μg/ml. The time frame for exposing human intestine CaCo-2 cells to ganglioside GD3 was chosen to be 6-48 h as previous work on ganglioside GM1 uptake by cultured cells predicts slow and incomplete ganglioside absorption from the apical side. […] The ganglioside treated cells received GD3 on either the BBM (apical) side or the BLM side of CaCo-2 cell monolayers. GD3 delivery on the apical and BLM side of CaCo-2 cells was used as an in vitro model for enteral and intravenous nutrient delivery, respectively. After GD3 incubation, apical and BLM supernatants were collected and cells were washed with PBS and Tris buffer containing EDTA. CaCo-2 cells from each trans-well insert were trypsinized, pooled together in Tris-mannitol buffer and sonicated to form cell lysates. Cell lysates were saved for protein and ganglioside analysis.
Total and individual gangliosides were measured with a colorimetric sialic acid assay as ganglioside bound N-acetyl neuraminic acid (GG-NANA). An aliquot of purified ganglioside sample was dried under N2 gas and dissolved with 0.5 ml of ddH20 and 0.5 ml of resorcinol-HCl in screw-capped Teflon-lined tubes. The purple-blue color developed by reacting resorcinol reagent with ganglioside sialic acid at 160° C. for 8 min was extracted into butylacetate/butanol (85:15, v/v) solvent. Optical density was read by a spectrophotometer at 580 nm. For quantitative analysis, N-acetyl neuraminic acid (also known as sialic acid) was used as a standard.
The following equations were used to calculate the percentage and amount of ganglioside GD3 taken up, retained, transferred and metabolized by human intestinal CaCo-2 cells following brush border membrane or basolateral membrane GD3 delivery. For all calculations the values obtained from the control were subtracted off the test groups to correct for small levels of ganglioside present in the serum and cells. In Equation 1, the % uptake=[(amount delivered-amount remaining)*100%] divided by the amount delivered. In Equation 2, the % retention=[amount cell*100%] divided by the amount uptake. In Equation 3, the % transfer=[amount receiving compartment*100%] is divided by the amount uptake. In Equation 4, the % metabolism=[amount uptake−amount retained−amount transferred*100%] divided by the amount uptake.
Sample size determination for a one tailed comparison at 80% power to detect a 4-5 fold increase in GM1 levels in skin fibroblasts (0.2 nmol/mg protein to 0.9 nmol/mg protein, P<0.05) requires a sample size of 3. All data are expressed as the mean±the standard error of the mean for a sample size of n=4 (4 different cell passages) for intestine cell sensitivity experiments and n=3-4 (3-4 different cell passages) for ganglioside GD3 absorption experiments. […]

CaCo-2 cells [2] = assay: Lactate dehydrogenase (LDH) release cytotoxicity assay; type: cell-based, human
Procedure: The human colon cancer cell line, CaCo-2, was obtained from American Type Culture Collection (Manassas, Va.) and was grown (passage 50-65) under standard incubator conditions (humidified atmosphere, 5% CO2, 37° C.) as adherent monolayer cultures in T-flasks containing Earle's minimum essential medium (EMEM). The cell culture growth medium (pH 7.2) was supplemented with 10% (v/v) fetal bovine serum, 1% (v/v) antibiotic/antimycotic, 26 mM sodium bicarbonate, 10 mM HEPES and 1 mM pyruvic acid. Media was changed every 2-3 days and cell density and viability was assessed with a hemocytometer using the trypan blue dye exclusion method.
Human intestine CaCo-2 cells were seeded at a density of 400,000 cells/ml on a 24 well plate. At confluence, cells were switched into EMEM-4 (4% FBS) and treated with a range of GD3 concentrations (0-64 μg/ml) similar or higher than the amount in human milk on the apical side for 24 h under standard incubator conditions. […] In brief, cell lysates and supernatants were incubated with an enzyme/substrate solution for 30 min at room temperature and the absorbance of colored formazan product was measured at 490 nm with a microtiter plate reader (Molecular Devices, Sunnyvale, Calif.). Absorbance background reading under kit conditions was less than 0.075. Data were expressed as percentage LDH release from cells. […]

Giardia cells = settings: after 2 h, cited from earlier work
[3] = Distribution of ganglioside to the intestine (discussion)

CC(C)CCC[C@@H](C)[C@H]1CC[C@H]2[C@@H]3CC=C4C[C@@H](O)CC[C@]4(C)[C@H]3CC[C@]12C [cholesterol]
Apical uptake efficiency (rat intestine): 50%

II^3 (NeuAc)2-LacCer [GD3]
Apical GD3 uptake efficiency, maximum (CaCo-2 cells [1]; 10 μg/ml apical, after 24 h): 73%
GD3 uptake, basolateral compared to apical delivery (CaCo-2 cells [1]; 10 μg/ml, 6, 24 and 48 h): faster and more efficient
Time course of GD3 uptake (CaCo-2 cells [1]; 10 μg/ml, 6, 24 and 48 h at 37° C.): rapid and linear for the first 6 h
Amount of GD3 taken up from the basolateral membrane side when concentration doubled (CaCo-2 cells [1]; 5 or 10 μg/ml, 6 h at 37° C.): twice as high
Percent of GD3 taken up that was metabolized (CaCo-2 cells [1]; after 6 h apical exposure, 10 μg/ml): 96%
Drop of the percentage GD3 metabolized (CaCo-2 cells [1]; after 24 h apical exposure): 32%
GD3 incorporated (CaCo-2 cells [1]; apical delivery of 24 μg, after 24 h): 18.5 µg
Fate of basolateral membrane GD3 uptake (CaCo-2 cells [1]; following 24 h exposure, 10 μg/ml): completely metabolized
LDH release from cells (CaCo-2 cells [2]; 64 μg/ml, 24 h): significant release of LDH
Concentration at which toxicity to enterocytes begins (CaCo-2 cells [2]; after 24 h exposure): greater than 32 μg/ml

II^3 NeuAc-GgOse4Cer [GM1]
Ganglioside incorporated (Giardia cells): 2.4 µg
Maximal uptake efficiency (Giardia cells; same amount of ganglioside): 10%
Fraction that could have been distributed to the intestine [3]: at most 6%

II^3 NeuAc-LacCer [GM3]
Fraction that could have been distributed to the intestine [3]: ≤ 47.4%

sphingomyelin
Apical uptake efficiency (rat intestine): 22-43%
